We go through ten compounds from US5589500A, “Substituted 1,1,2-triphenylbutenes and their use in the treatment of cancer” (priority 1992, dated 1996).

In test [1] the test system is oestrogen receptor. To be noted: rat uterine cytosol competitive binding assay; J. Med. Chem. 25, 167-171 (1982); cited from earlier work.
The target in test [2] is calmodulin dependent cAMP-PDE (Homo sapiens, UniProt P0DP23). Description: Antagonism of calmodulin dependent cAMP-PDE (inhibiting the activation of cyclic AMP phosphodiesterase by calmodulin). In kind it is biochemical.
Test [3] deals with MCF-7 human breast cancer cell line. Kind of test: Short term in vitro cytotoxicity against MCF-7 human breast cancer cell line. To be noted: MCF7, read-out: Short Term in vitro cytotoxicity MCF-7 IC50 ± SD. The protocol:
For some compounds, cytotoxicity against the MCF-7 human breast cancer cell line was determined.

Test [4] has as its target T1, oestrogen receptor (ER) (Rattus norvegicus, UniProt P06211).
T1 construct: from tissue; host or cells: rat uterine cytosol
T1 sequence (P06211 1-600): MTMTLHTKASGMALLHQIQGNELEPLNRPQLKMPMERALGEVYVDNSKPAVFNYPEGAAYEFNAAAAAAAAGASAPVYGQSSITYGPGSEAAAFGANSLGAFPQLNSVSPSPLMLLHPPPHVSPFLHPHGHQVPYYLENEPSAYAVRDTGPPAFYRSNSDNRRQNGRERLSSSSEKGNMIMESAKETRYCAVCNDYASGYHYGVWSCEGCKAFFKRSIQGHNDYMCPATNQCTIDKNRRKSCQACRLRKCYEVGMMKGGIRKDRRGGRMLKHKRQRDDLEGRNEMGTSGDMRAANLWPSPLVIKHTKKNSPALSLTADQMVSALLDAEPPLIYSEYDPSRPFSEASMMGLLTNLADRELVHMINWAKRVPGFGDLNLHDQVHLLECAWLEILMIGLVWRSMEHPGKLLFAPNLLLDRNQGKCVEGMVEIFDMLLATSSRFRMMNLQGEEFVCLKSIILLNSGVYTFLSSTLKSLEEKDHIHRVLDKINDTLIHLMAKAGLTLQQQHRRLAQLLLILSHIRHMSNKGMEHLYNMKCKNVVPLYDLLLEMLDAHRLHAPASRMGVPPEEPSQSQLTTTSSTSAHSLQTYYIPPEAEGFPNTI
Description: Relative binding affinity for the oestrogen receptor, rat uterine cytosol competitive binding assay. The protocol: For some compounds, cytotoxicity against the MCF-7 human breast cancer cell line was determined. The test methods used were those described by M. G. Rowlands et al., Biochemical Pharmacology 40, 283-289 (1990). The relative binding offinity (RBA) for the oestrogen receptor (ER) was measured in a rat uterine cystosol competitive binding assay as described by A. E. Wakeling, 1987 (Chapter 7 p219-236 in "STEROID HORMONES--A PRACTICAL APPROACH" Eds B. Green and R. E. Leake, IRL Press Ltd, Oxford, UK).

The test system of test [5] is receptor from calf uterine cytosol. To be noted: calf uterine cytosol (oestradiol = 100); J. Med. Chem. 32, 2527-2533 (1989); cited from earlier work.
The subject of test [6] is rat uterine receptor. To be noted: Cancer Research 51, 5851-5858 (1991); cited from earlier work.
Where [7] appears, read: ± SD, read-out: Antagonism of calmodulin dependent cAMP-PDE IC50 ± SD.

Like-named read-outs stand apart in the source and are kept apart here.

For the compound `CC/C(=C(\c1ccccc1)c1ccc(OCCCN2CCCC2)cc1)c1ccccc1`, in test [1], the “binding affinity for the oestrogen receptor compared with pyrrolidino tamoxifen itself (n=2)” value is given as “lower binding affinity for the oestrogen receptor”.
Regarding `CC/C(=C(\c1ccc(I)cc1)c1ccc(OCCCCN2CCCC2)cc1)c1ccccc1` [n = 4, NR^1 = R^2 = pyrrolidino, E-1(4-(4-(N-pyrrolidino)butoxy)phenyl)-1-(4-iodophenyl)-2-phenylbutene], the IC50 in test [2] (setting [7]) turned out to be 1010 ± 80 nM; in test [3], 3990 ± 600 nM. Besides, the “Binding affinity for ER, RBA” value in test [4] is listed as 9.
As to `CC/C(=C(\c1ccccc1)c1ccc(OCCN(C)C)cc1)c1ccccc1` [Tamoxifen], the IC50 amounted to 6750 ± 1060 nM in test [2] and 14000 ± 1000 nM in test [3]. Moreover, the “RBA with receptor from calf uterine cytosol” value (from here on “RBA with receptor”) in test [5] is on record as 1. Moreover, the “RBA for rat uterine receptor” value in test [6] was 5.
As to `CC/C(=C(\c1ccc(I)cc1)c1ccc(OCCN(C)C)cc1)c1ccccc1` [4-iodotamoxifen], the IC50 is 2300 ± 420 nM in test [2] (setting [7]) and 7630 ± 60 nM in test [3]. Moreover, in test [5], the “RBA with receptor” value was 5. The “RBA for rat uterine receptor” value in test [6] was 12.5.
Turning to `C[C@]12CC[C@@H]3c4ccc(O)cc4CC[C@H]3[C@@H]1CC[C@@H]2O` [17β-estradiol], the “RBA with receptor” value in test [5] was 100.
For the compound `CC/C(=C(\c1ccc(I)cc1)c1ccc(OCCCN2CCCC2)cc1)c1ccccc1` [n = 3, NR^1 = R^2 = pyrrolidino, E-1-(4-(3-(N-pyrrolidino)propoxy)phenyl)-1-(4-iodophenyl)-2-phenyl-1-butene], the IC50 amounted to 1110 ± 70 nM in test [2] (setting [7]) and 4500 ± 70 nM in test [3]. Besides, in test [4], the “Binding affinity for ER, RBA” value is listed as 23.
Turning to `CC/C(=C(\c1ccc(I)cc1)c1ccc(OCCCCN(C)C)cc1)c1ccccc1` [n = 4, R^1 = R^2 = CH3, E-1-(4-(4-(Dimethylamino)butoxy)phenyl)-1-(4-iodophenyl)-2-phenyl-1-butene], the concentration for half-maximal inhibition (IC50) in test [2] (setting [7]) was determined as 2250 ± 180 nM. For the same compound, the “Binding affinity for ER, RBA” value in test [4] is 25.
For `CC/C(=C(\c1ccc(I)cc1)c1ccc(OCCCCCCCCN2CCCC2)cc1)c1ccccc1` [n = 8, NR^1 = R^2 = pyrrolidino] the same measures were 260 ± 50 nM and 4.
On to `CC/C(=C(\c1ccc(I)cc1)c1ccc(OCCCN(C)C)cc1)c1ccccc1` [n = 3, R^1 = R^2 = CH3, E-1-(4-(3-(Dimethylamino)propoxy)phenyl)-1-(4-1iodophenyl)-2,phenyl-1-butene], for which the IC50 in test [2] (setting [7]) worked out at 2020 ± 170 nM.
For the compound `CC/C(=C(\c1ccc(I)cc1)c1ccc(OCCN2CCCC2)cc1)c1ccccc1` [Idoxifene], the IC50 was found to be 1450 ± 80 nM in test [2] (setting [7]) and 7270 ± 380 nM in test [3]. Also, the “RBA with receptor” value in test [5] was 5. Besides, the “RBA for rat uterine receptor” value in test [6] is reported as 12.5.

The IC50 is the concentration needed to halve the response being measured.
